Data: patent publication US20260193264A1, “BENZOYPARAZINE PYRAZINES AND THEIR USES” (FOGHORN THERAPEUTICS INC., priority 2022, published 2026)

Legend:
[1] = target: T1, HiBit-BRG1 fusion protein in stable HeLa cell line expressing HiBit-BRG1 and LgBit (Homo sapiens, UniProt P51532); experiment: HiBiT-BRG1 cell-based degradation assay (Nano-Glo HiBiT, 24 h); details: HeLa HiBit-BRG1/LgBit cells; for DC50: read-out: BRMG1 HiBit Degradation IC50; for Dmax: top dose 30 μM, read-out: BRG1 HiBit Degradation Maximum (%)
T1 construct: expressed in transfected cells
Description: Procedure: A stable HeLa cell line expressing HiBiT-BRM was generated. On day 0, 5000 cells were seeded in 40 μL of media into each well of 384-well cell culture plates. […] Subsequently plates were incubated for 24 h in a standard tissue culture incubator and equilibrated at room temperature for 15 minutes. Nano-Glo HiBiT Lytic Detection System (Promega N3050) reagent was freshly prepared and 20 ul was added to each well. Upon addition of this LgBit-containing reagent, the HiBiT and LgBiT proteins associate to form the luminescent NanoBiT luciferase. The plates were shaken for 10 minutes at room temperature and the bioluminescence read using an EnVision plate reader (PerkinElmer). For measurement of BRG1 degradation, a stable HeLa cell line expressing HiBit-BRG1 and LgBit was generated. The same protocol as above was then followed. The degradation % was calculated using the following formula: % degradation=100%−100%×(Lumsample−LumLC)/(LumHC−LumLC). DMSO treated cells are employed as High Control (HC) and 2 μM of a known BRM/BRG1 degrader standard treated cells are employed as Low Control (LC).

[2] = target: T2, HiBiT-BRM fusion protein in stable HeLa cell line (Homo sapiens, UniProt P51531); experiment: HiBiT-BRM cell-based degradation assay (Nano-Glo HiBiT Lytic Detection, 24 h); design: DC50: scale not given here; details: HeLa HiBiT-BRM cells; for DC50: read-out: BRM HiBit Degradation IC50; for BRM HiBit Degradation Maximum (%): top dose 30 μM
T2 construct: expressed in transfected cells
Description: Procedure: A stable HeLa cell line expressing HiBiT-BRM was generated. On day 0, 5000 cells were seeded in 40 μL of media into each well of 384-well cell culture plates. On day 1, cells were treated with 120 nL DMSO or 120 nL of 3-fold serially DMSO-diluted compounds (10 points in duplicate with 30 μM as final top dose). Subsequently plates were incubated for 24 h in a standard tissue culture incubator and equilibrated at room temperature for 15 minutes. Nano-Glo HiBiT Lytic Detection System (Promega N3050) reagent was freshly prepared and 20 ul was added to each well. Upon addition of this LgBit-containing reagent, the HiBiT and LgBiT proteins associate to form the luminescent NanoBiT luciferase. The plates were shaken for 10 minutes at room temperature and the bioluminescence read using an EnVision plate reader (PerkinElmer).
The degradation % was calculated using the following formula: % degradation=100%−100%×(Lumsample−LumLC)/(LumHC−LumLC). DMSO treated cells are employed as High Control (HC) and 2 μM of a known BRM/BRG1 degrader standard treated cells are employed as Low Control (LC).

T1 sequence (P51532 whole entry, the tested form may be a part): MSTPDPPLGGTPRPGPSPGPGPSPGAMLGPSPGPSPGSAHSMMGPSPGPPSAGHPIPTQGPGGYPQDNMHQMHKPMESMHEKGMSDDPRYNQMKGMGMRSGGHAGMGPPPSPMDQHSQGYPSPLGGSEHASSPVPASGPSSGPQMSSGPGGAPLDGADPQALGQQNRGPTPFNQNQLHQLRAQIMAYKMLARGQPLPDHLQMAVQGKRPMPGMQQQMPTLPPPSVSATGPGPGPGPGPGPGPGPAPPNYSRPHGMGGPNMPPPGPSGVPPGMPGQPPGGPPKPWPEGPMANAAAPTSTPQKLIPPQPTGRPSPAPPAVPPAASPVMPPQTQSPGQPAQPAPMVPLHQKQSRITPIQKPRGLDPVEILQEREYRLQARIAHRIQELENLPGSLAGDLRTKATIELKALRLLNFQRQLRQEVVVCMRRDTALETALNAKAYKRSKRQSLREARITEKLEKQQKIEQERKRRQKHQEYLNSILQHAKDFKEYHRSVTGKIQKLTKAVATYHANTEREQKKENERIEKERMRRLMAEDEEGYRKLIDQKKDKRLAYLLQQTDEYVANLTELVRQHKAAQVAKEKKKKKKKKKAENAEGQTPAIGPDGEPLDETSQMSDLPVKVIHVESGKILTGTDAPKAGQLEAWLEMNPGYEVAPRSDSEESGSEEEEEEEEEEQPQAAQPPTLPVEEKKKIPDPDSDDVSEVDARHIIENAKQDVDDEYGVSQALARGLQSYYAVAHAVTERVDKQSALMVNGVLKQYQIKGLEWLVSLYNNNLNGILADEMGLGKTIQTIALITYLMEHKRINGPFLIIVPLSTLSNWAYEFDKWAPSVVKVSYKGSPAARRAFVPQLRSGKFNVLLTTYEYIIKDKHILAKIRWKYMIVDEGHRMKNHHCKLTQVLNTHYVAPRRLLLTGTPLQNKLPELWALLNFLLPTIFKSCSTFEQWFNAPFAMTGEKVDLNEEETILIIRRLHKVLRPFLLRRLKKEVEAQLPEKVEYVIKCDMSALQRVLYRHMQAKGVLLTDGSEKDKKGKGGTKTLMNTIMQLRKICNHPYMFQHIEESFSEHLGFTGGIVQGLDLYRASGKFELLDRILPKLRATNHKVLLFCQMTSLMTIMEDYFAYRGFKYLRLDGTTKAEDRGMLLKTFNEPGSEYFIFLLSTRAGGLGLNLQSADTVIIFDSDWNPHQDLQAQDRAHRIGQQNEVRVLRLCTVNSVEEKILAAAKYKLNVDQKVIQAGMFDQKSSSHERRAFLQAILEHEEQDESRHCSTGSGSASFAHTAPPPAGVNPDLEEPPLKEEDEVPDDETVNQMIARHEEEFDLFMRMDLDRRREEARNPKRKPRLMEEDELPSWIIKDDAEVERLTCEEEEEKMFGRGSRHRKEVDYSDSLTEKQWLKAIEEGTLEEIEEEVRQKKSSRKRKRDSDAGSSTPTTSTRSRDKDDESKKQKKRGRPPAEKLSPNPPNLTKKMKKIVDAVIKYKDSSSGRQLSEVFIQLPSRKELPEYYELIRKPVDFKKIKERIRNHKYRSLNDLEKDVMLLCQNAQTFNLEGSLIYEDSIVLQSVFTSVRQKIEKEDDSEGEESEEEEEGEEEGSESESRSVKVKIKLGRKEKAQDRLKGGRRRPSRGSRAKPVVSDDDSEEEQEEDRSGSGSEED
T2 sequence (P51531 whole entry, the tested form may be a part): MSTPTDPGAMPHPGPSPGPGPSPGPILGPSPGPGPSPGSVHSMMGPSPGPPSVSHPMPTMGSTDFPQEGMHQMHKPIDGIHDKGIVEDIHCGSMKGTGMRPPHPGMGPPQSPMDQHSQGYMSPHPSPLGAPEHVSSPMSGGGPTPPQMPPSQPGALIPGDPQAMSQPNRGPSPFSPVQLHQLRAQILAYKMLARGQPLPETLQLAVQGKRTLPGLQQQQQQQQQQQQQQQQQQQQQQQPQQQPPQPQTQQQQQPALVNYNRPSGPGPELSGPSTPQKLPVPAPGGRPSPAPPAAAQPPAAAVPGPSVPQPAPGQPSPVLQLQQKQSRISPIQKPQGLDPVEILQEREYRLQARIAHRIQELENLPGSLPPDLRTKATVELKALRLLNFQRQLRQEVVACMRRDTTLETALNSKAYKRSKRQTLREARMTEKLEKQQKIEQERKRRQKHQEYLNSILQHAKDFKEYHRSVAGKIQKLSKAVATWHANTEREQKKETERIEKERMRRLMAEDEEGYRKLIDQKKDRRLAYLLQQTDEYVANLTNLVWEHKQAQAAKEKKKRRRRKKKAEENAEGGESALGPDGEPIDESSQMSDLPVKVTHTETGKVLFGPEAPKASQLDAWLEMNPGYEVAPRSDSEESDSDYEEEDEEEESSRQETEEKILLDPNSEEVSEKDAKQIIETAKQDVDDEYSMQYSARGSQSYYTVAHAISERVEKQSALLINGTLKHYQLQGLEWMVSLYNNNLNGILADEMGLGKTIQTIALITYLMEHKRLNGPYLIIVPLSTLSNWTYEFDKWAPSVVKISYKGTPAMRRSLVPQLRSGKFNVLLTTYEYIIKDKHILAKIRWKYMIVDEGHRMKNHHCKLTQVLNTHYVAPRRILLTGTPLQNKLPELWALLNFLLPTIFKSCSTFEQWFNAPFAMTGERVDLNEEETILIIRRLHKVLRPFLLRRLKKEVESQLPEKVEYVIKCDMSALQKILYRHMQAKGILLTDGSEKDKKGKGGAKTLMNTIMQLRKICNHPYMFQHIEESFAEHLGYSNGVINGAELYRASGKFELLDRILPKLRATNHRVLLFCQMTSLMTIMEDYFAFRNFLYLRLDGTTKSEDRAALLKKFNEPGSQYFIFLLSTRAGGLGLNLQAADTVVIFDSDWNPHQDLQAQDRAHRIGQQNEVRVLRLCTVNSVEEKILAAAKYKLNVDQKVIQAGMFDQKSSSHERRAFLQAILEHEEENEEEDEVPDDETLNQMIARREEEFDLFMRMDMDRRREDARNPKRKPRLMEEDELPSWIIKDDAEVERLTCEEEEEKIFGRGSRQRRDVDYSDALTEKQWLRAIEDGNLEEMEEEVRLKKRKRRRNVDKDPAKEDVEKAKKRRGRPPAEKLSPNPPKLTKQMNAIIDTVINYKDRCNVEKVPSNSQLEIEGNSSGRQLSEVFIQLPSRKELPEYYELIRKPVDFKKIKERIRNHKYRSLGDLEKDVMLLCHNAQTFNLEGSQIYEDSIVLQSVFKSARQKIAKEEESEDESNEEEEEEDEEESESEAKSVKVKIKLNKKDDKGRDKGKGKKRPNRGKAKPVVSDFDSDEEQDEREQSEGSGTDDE

Row | Structure (SMILES) | DC50 [1] [nM] | Dmax [1] [%] | DC50 [2] [nM] | BRM HiBit Degradation Maximum (%) [2]
1 | Cc1ncsc1-c1ccc([C@H](C)NC(=O)[C@@H]2C[C@@H](O)CN2C(=O)[C@@H](c2cc(N3CCC(N4CC(c5ccc6nnc(-c7ccccc7O)cc6c5)C4)CC3)no2)C(C)C)cc1 [Compound 3, (2S,4R)-4-hydroxy-1-((R)-2-(3-(4-(3-(3-(2-hydroxyphenyl)cinnolin-6-yl)azetidin-1-yl)piperidin-1-yl)isoxazol-5-yl)-3-methylbutanoyl)-N-((S)-1-(4-(4-methylthiazol-5-yl)phenyl)ethyl)pyrrolidine-2-carboxamide] | < 10 | > 75 | < 10 | A (“A” indicates maximum degradation ≥75%)
2 | Cc1ncsc1-c1ccc([C@H](C)NC(=O)[C@@H]2C[C@@H](O)CN2C(=O)[C@@H](c2cc(-c3cnc(N4CC(c5ccc6nnc(-c7ccccc7O)cc6c5)C4)nc3)no2)C(C)C)cc1 [Compound 4, (2S,4R)-4-hydroxy-1-[(2R)-2-[3-(2-{3-[3-(2-hydroxyphenyl)cinnolin-6-yl]azetidin-1-yl}pyrimidin-5-yl)-1,2-oxazol-5-yl]-3-methylbutanoyl]-N-[(1S)-1-[4-(4-methyl-1,3-thiazol-5-yl)phenyl]ethyl]pyrrolidine-2-carboxamide] | > 10 | > 75 | < 10 | A (“A” indicates maximum degradation ≥75%)
3 | Cc1ncsc1-c1ccc([C@H](C)NC(=O)[C@@H]2C[C@@H](O)CN2C(=O)[C@H](c2cc(-c3cnc(N4CC(c5ccc6nnc(-c7ccccc7O)cc6c5)C4)nc3)no2)C(C)C)cc1 [Compound 5, (2S,4R)-4-hydroxy-1-[(2S)-2-[3-(2-{3-[3-(2-hydroxyphenyl)cinnolin-6-yl]azetidin-1-yl}pyrimidin-5-yl)-1,2-oxazol-5-yl]-3-methylbutanoyl]-N-[(1S)-1-[4-(4-methyl-1,3-thiazol-5-yl)phenyl]ethyl]pyrrolidine-2-carboxamide] |  | < 50 | > 100 | B (“B” indicates maximum degradation ≥50%)
4 | Cc1ncsc1-c1ccc([C@H](C)NC(=O)[C@@H]2C[C@@H](O)CN2C(=O)[C@@H](c2cc(OCC(=O)N3CC(c4ccc5nnc(-c6ccccc6O)cc5c4)C3)no2)C(C)C)cc1 [Compound 6, (2S,4R)-4-hydroxy-1-[(2R)-2-[3-(2-{3-[3-(2-hydroxyphenyl)cinnolin-6-yl]azetidin-1-yl}-2-oxoethoxy)-1,2-oxazol-5-yl]-3-methylbutanoyl]-N-[(1S)-1-[4-(4-methyl-1,3-thiazol-5-yl)phenyl]ethyl]pyrrolidine-2-carboxamide] |  | < 50 | > 100 | B (“B” indicates maximum degradation ≥50%)
5 | Cc1ncsc1-c1ccc([C@H](C)NC(=O)[C@@H]2C[C@@H](O)CN2C(=O)[C@@H](c2cc(N3CCC(C(=O)N4CC(c5ccc6nnc(-c7ccccc7O)cc6c5)C4)CC3)no2)C(C)C)cc1 [Compound 7, (2S,4R)-4-hydroxy-1-((R)-2-(3-(4-(3-(3-(2-hydroxyphenyl)cinnolin-6-yl)azetidine-1-carbonyl)piperidin-1-yl)isoxazol-5-yl)-3-methylbutanoyl)-N-((S)-1-(4-(4-methylthiazol-5-yl)phenyl)ethyl)pyrrolidine-2-carboxamide] | > 100 | > 50 | > 10 | A (“A” indicates maximum degradation ≥75%)
6 | Cc1ncsc1-c1ccc([C@H](C)NC(=O)[C@@H]2C[C@@H](O)CN2C(=O)[C@@H](c2cc(OCCN3CC(c4ccc5cc(-c6ccccc6O)nnc5c4)C3)no2)C(C)C)cc1 [Compound 8, (2S,4R)-4-hydroxy-1-[(2R)-2-[3-(2-{3-[3-(2-hydroxyphenyl)cinnolin-7-yl]azetidin-1-yl}ethoxy)-1,2-oxazol-5-yl]-3-methylbutanoyl]-N-[(1S)-1-[4-(4-methyl-1,3-thiazol-5-yl)phenyl]ethyl]pyrrolidine-2-carboxamide] |  | > 50 | < 10 | A (“A” indicates maximum degradation ≥75%)
7 | Cc1ncsc1-c1ccc([C@H](C)NC(=O)[C@@H]2C[C@@H](O)CN2C(=O)[C@@H](c2cc(N3CCC(CN4CC(c5ccc6cc(-c7ccccc7O)nnc6c5)C4)CC3)no2)C(C)C)cc1 [Compound 9, (2S,4R)-4-hydroxy-1-((R)-2-(3-(4-((3-(3-(2-hydroxyphenyl)cinnolin-7-yl)azetidin-1-yl)methyl)piperidin-1-yl)isoxazol-5-yl)-3-methylbutanoyl)-N-((S)-1-(4-(4-methylthiazol-5-yl)phenyl)ethyl)pyrrolidine-2-carboxamide] |  | < 50 | > 10 | A (“A” indicates maximum degradation ≥75%)
8 | Cc1ncsc1-c1ccc([C@H](C)NC(=O)[C@@H]2C[C@@H](O)CN2C(=O)[C@@H](c2cc(N3CCC(N4CC(c5ccc6cc(-c7ccccc7O)nnc6c5)C4)CC3)no2)C(C)C)cc1 [Compound 10, (2S,4R)-4-hydroxy-1-((R)-2-(3-(4-(3-(3-(2-hydroxyphenyl)cinnolin-7-yl)azetidin-1-yl)piperidin-1-yl)isoxazol-5-yl)-3-methylbutanoyl)-N-((S)-1-(4-(4-methylthiazol-5-yl)phenyl)ethyl)pyrrolidine-2-carboxamide] |  | < 50 | > 10 | A (“A” indicates maximum degradation ≥75%)
9 | Cc1ncsc1-c1ccc([C@H](C)NC(=O)[C@@H]2C[C@@H](O)CN2C(=O)[C@@H](c2cc(-c3cnc(N4CC(c5ccc6cc(-c7ccccc7O)nnc6c5)C4)nc3)no2)C(C)C)cc1 [Compound 11, (2S,4R)-4-hydroxy-1-[(2R)-2-[3-(2-{3-[3-(2-hydroxyphenyl)cinnolin-7-yl]azetidin-1-yl}pyrimidin-5-yl)-1,2-oxazol-5-yl]-3-methylbutanoyl]-N-[(1S)-1-[4-(4-methyl-1,3-thiazol-5-yl)phenyl]ethyl]pyrrolidine-2-carboxamide] |  | < 50 | < 10 | A (“A” indicates maximum degradation ≥75%)
10 | Cc1ncsc1-c1ccc([C@H](C)NC(=O)[C@@H]2C[C@@H](O)CN2C(=O)[C@H](c2cc(-c3cnc(N4CC(c5ccc6cc(-c7ccccc7O)nnc6c5)C4)nc3)no2)C(C)C)cc1 [Compound 12, (2S,4R)-4-hydroxy-1-[(2S)-2-[3-(2-{3-[3-(2-hydroxyphenyl)cinnolin-7-yl]azetidin-1-yl}pyrimidin-5-yl)-1,2-oxazol-5-yl]-3-methylbutanoyl]-N-[(1S)-1-[4-(4-methyl-1,3-thiazol-5-yl)phenyl]ethyl]pyrrolidine-2-carboxamide] |  | < 50 | > 100 | C (“C” indicates maximum degradation <50%)
11 | Cc1ncsc1-c1ccc([C@H](C)NC(=O)[C@@H]2C[C@@H](O)CN2C(=O)[C@@H](c2cc(-c3cnc(N4CCN(c5ccc6nnc(-c7ccccc7O)cc6c5)CC4)nc3)no2)C(C)C)cc1 [Compound 13, (2S,4R)-4-hydroxy-1-((R)-2-(3-(2-(4-(3-(2-hydroxyphenyl)cinnolin-6-yl)piperazin-1-yl)pyrimidin-5-yl)isoxazol-5-yl)-3-methylbutanoyl)-N—((S)-1-(4-(4-methylthiazol-5-yl)phenyl)ethyl)pyrrolidine-2-carboxamide] | < 10 | > 75 | < 10 | A (“A” indicates maximum degradation ≥75%)
12 | Cc1ncsc1-c1ccc([C@H](C)NC(=O)[C@@H]2C[C@@H](O)CN2C(=O)[C@H](c2cc(-c3cnc(N4CCN(c5ccc6nnc(-c7ccccc7O)cc6c5)CC4)nc3)no2)C(C)C)cc1 [Compound 14, (2S,4R)-4-hydroxy-1-((S)-2-(3-(2-(4-(3-(2-hydroxyphenyl)cinnolin-6-yl)piperazin-1-yl)pyrimidin-5-yl)isoxazol-5-yl)-3-methylbutanoyl)-N—((S)-1-(4-(4-methylthiazol-5-yl)phenyl)ethyl)pyrrolidine-2-carboxamide] | > 100 | > 75 | > 10 | A (“A” indicates maximum degradation ≥75%)
13 | Cc1ncsc1-c1ccc([C@H](C)NC(=O)[C@@H]2C[C@@H](O)CN2C(=O)[C@H](c2cc(-c3cnc(N4CC5(CC(c6ccc7cc(-c8ccccc8O)nnc7c6)C5)C4)nc3)no2)C(C)C)cc1 [Compound 17] |  | < 50 | > 10 | A (“A” indicates maximum degradation ≥75%)
